Measured values from ChEMBL document CHEMBL4765288, “Synthesis of novel monocarbonyl curcuminoids, evaluation of their efficacy against MRSA, including ex vivo infection model and their mechanistic studies” (Eur J Med Chem, 2020).
Converted amounts (≈) assume the structure as drawn. The source made the active and inactive calls. No cut-off for these calls is given here. Positions of bridges follow the written chain, without caps; N, C: chain ends. Non-standard residues stand in square brackets, D forms with d. Residues, ends and D or L forms follow the SMILES beside them. *: point of attachment. X1 = CC[C@H](C)CCCCC(=O)*; Dab = NCC[C@H](N)C(=O)O

Legend:
[1] = system: Staphylococcus aureus; test: Antibacterial activity against methicillin resistant Staphylococcus aureus ATCC 33591 after 16 to 18 hrs by CLSI-based microbroth dilution method; format: functional; details: time 16-18 hrs
[2] = system: Cell membrane; test: Induction of cell membrane damage in Staphylococcus aureus ATCC 33591 assessed as membrane surface perturbation with multiple dent and bleb formation at 5 times MIC after 4 hrs by scanning electron microscopy; format: subcellular
[3] = system: Staphylococcus aureus; test: Bactericidal activity against methicillin-resistant Staphylococcus aureus assessed as in viable cells at 5 times MIC measured after 1 hr by time-kill assay; format: functional
[4] = system: Staphylococcus aureus; test: Antibacterial activity against methicillin resistant Staphylococcus aureus S-34 after 16 to 18 hrs by CLSI-based microbroth dilution method; format: functional; details: time 16-18 hrs
[5] = system: Escherichia coli; test: Antibacterial activity against Escherichia coli ATCC 25922 after 16 to 18 hrs by CLSI-based microbroth dilution method; format: functional; details: time 16-18 hrs
[6] = Hemolytic activity in mouse RBC at 150 ug/ml after 1 hr by microplate reader analysis relative to control; format: ADME, cell-based, Erythrocyte; details: mouse red blood cells (erythrocytes), at 150 µg/mL, read-out: Activity
[7] = system: Staphylococcus aureus; test: Antibacterial activity against methicillin resistant Staphylococcus aureus S-30 after 16 to 18 hrs by CLSI-based microbroth dilution method; format: functional; details: time 16-18 hrs
[8] = Cytotoxicity against mouse 3T3 cells assessed as reduction in cell viability at 150 ug/ml after 4 hrs by MTT assay (reference value: 90.42 +/- 0.03%); format: cell-based; details: at 150 µg/mL, read-out: Activity
[9] = system: Cell membrane; test: Induction of cytoplasmic membrane depolarization in methicillin resistant Staphylococcus aureus ATCC 33591 at 5 times MIC by [DiSC3(5)] probe based fluorescence assay relative to control; format: subcellular; details: time 2.0 hrs
[10] = system: Cell membrane; test: Induction of cytoplasmic membrane permeabilization in Staphylococcus aureus ATCC 33591 at 5 times MIC measured after 120 min using calcein-AM as substrate by dye based fluorescence assay relative to control; format: subcellular
[11] = Hemolytic activity in mouse RBC at 75 ug/ml after 1 hr by microplate reader analysis relative to control; format: ADME, cell-based, Erythrocyte; details: mouse red blood cells (erythrocytes), at 75 µg/mL, read-out: Activity
[12] = Cytotoxicity against mouse 3T3 cells assessed as reduction in cell viability at 75 ug/ml after 4 hrs by MTT assay (reference value: 90.42 +/- 0.03%); format: cell-based; details: 3t3, 4 h, at 75 µg/mL
[13] = system: Escherichia coli; test: Antibacterial activity against Escherichia coli E-74 after 16 to 18 hrs by CLSI-based microbroth dilution method; format: functional; details: time 16-18 hrs
[14] = system: Staphylococcus aureus; test: Antibacterial activity against methicillin resistant Staphylococcus aureus S-41 after 16 to 18 hrs by CLSI-based microbroth dilution method; format: functional; details: time 16-18 hrs
[15] = system: Staphylococcus aureus; test: Antibacterial activity against methicillin susceptible Staphylococcus aureus ATCC 29213 after 16 to 18 hrs by CLSI-based microbroth dilution method; format: functional; details: time 16-18 hrs
[16] = system: Staphylococcus aureus; test: Antibacterial activity against methicillin resistant Staphylococcus aureus S-37 after 16 to 18 hrs by CLSI-based microbroth dilution method; format: functional; details: time 16-18 hrs
[17] = system: Staphylococcus aureus; test: Antibacterial activity against methicillin susceptible Staphylococcus aureus ATCC 29213 infected in mouse 3T3 cells assessed as bacterial load at 5 times MIC after 16 hrs (reference value: 6.6 log CFU/ml); format: functional
[18] = system: Escherichia coli; test: Antibacterial activity against Escherichia coli E-52 after 16 to 18 hrs by CLSI-based microbroth dilution method; format: functional; details: time 16-18 hrs
[19] = system: Cell membrane; test: Induction of cell membrane damage in Staphylococcus aureus ATCC 33591 at 5 times MIC assessed as loss of cell viability measured after 2 hrs by confocal microscopy
[20] = system: Cell membrane; test: Induction of cytoplasmic membrane permeabilization in Staphylococcus aureus ATCC 33591 at 5 times MIC measured after 2 min using calcein-AM as substrate by dye based fluorescence assay relative to control; format: subcellular
[21] = system: Staphylococcus aureus; test: Antibacterial activity against methicillin resistant Staphylococcus aureus ATCC S-28 after 16 to 18 hrs by CLSI-based microbroth dilution method; format: functional; details: time 16-18 hrs
[22] = system: Staphylococcus aureus; test: Antibacterial activity against methicillin resistant Staphylococcus aureus S-33 after 16 to 18 hrs by CLSI-based microbroth dilution method; format: functional; details: time 16-18 hrs
[23] = system: Escherichia coli; test: Antibacterial activity against Escherichia coli ATCC 11775 after 16 to 18 hrs by CLSI-based microbroth dilution method; format: functional; details: time 16-18 hrs
[24] = system: Escherichia coli; test: Antibacterial activity against Escherichia coli E-59 after 16 to 18 hrs by CLSI-based microbroth dilution method; format: functional; details: time 16-18 hrs
[25] = system: Staphylococcus aureus; test: Bactericidal activity against methicillin-resistant Staphylococcus aureus assessed as complete bacterial killing at 5 times MIC measured after 6 hrs by time-kill assay; format: functional, organism-based
[26] = system: Staphylococcus aureus; test: Bactericidal activity against methicillin-resistant Staphylococcus aureus assessed as reduction in viable count at 5 times MIC measured upto 4 hrs by time-kill assay; format: functional; details: time hrs <=4

SMILES | MIC [1] [µg/mL] | Activity [2] | MIC [4] [µg/mL] | MIC [5] [µg/mL] | hemolysis at 1 h, 150 ug/ml [6] [%] | MIC [7] [µg/mL] | viability at 4 h, 150 ug/ml [8] [%] | Activity [9] [%] | Activity [10] [%] | hemolysis at 1 h, 75 ug/ml [11] [%] | Activity [12] [%] | MIC [13] [µg/mL] | MIC [14] [µg/mL] | MIC [15] [µg/mL] | MIC [16] [µg/mL] | MIC [18] [µg/mL] | MIC [21] [µg/mL] | MIC [22] [µg/mL] | MIC [23] [µg/mL] | MIC [24] [µg/mL] | other results
CCOc1cc(/C=C2\CC/C(=C\c3ccc(OCCCN4CCCC(C)C4)c(OCC)c3)C2=O)ccc1OCCCN1CCCC(C)C1.Cl.Cl (stereo not given) | 4 | Active | 8 | 8 | 9.32 | 8 | 14.8 | 87 | 92.7 | 6.19 | 7.03 | 32 | 8 | 2 | 8 | 16 | 8 | 8 | 8 | 32 | Activity [3]: -3.4 log10CFU/ml; Activity [17]: 3.99 log10CFU/ml; Activity [19]: Active; Activity [20]: 60.2%
COc1cc(/C=C/C(=O)CC(=O)/C=C/c2ccc(O)c(OC)c2)ccc1O [CURCUMIN] | > 256 |  |  |  |  |  |  |  |  |  |  |  |  | > 256 |  |  |  |  |  |  | 
COc1cc(/C=C2\CC/C(=C\c3ccc(OCCCCN4CCCCCC4)c(OC)c3)C2=O)ccc1OCCCCN1CCCCCC1.Cl.Cl | 4 | Active | 16 | 16 | 9.32 | 8 | 14.8 | 90.7 | 89 | 6.19 | 7.03 | 32 | 8 | 2 | 16 | 32 | 8 | 8 | 16 | 32 | Activity [17]: 3.23 log10CFU/ml; Activity [19]: Active; Activity [20]: 69.7%
COc1cc(/C=C2\CC/C(=C\c3ccc(OCCCN4CCCCCC4)c(OC)c3)C2=O)ccc1OCCCN1CCCCCC1.Cl.Cl | 4 | Active | 8 | 16 | 9.32 | 8 | 14.8 | 95.7 | 93.2 | 6.19 | 7.03 | 32 | 8 | 2 | 8 | 32 | 8 | 8 | 16 | 32 | Activity [25]: Active; Activity [17]: 3.91 log10CFU/ml; Activity [19]: Active; Activity [20]: 80.6%
Cc1onc(-c2ccccc2)c1C(=O)N[C@@H]1C(=O)N2[C@@H]1SC(C)(C)[C@@H]2C(=O)O [OXACILLIN] | 64 (≈ 159 µM) |  | 128 (≈ 319 µM) |  |  | 128 (≈ 319 µM) |  |  |  |  |  |  | 128 (≈ 319 µM) | 0.5 (≈ 1.25 µM) | 128 (≈ 319 µM) |  | 128 (≈ 319 µM) | 128 (≈ 319 µM) |  |  | 
CC[C@H](C)CCCCC(=O)N[C@@H](CCN)C(=O)N[C@H](C(=O)N[C@@H](CCN)C(=O)N[C@H]1CCNC(=O)[C@H]([C@@H](C)O)NC(=O)[C@H](CCN)NC(=O)[C@H](CCN)NC(=O)[C@H](CC(C)C)NC(=O)[C@@H](Cc2ccccc2)NC(=O)[C@H](CCN)NC1=O)[C@@H](C)O (X1-[Dab]T[Dab][Dab][Dab][dF]L[Dab][Dab]T; lactam 4-C) |  |  |  | 0.5 (≈ 0.415 µM) |  |  |  |  |  |  |  | 1 (≈ 0.831 µM) |  |  |  | 1 (≈ 0.831 µM) |  |  | 0.5 (≈ 0.415 µM) | 1 (≈ 0.831 µM) | 
Cl.Cl.O=C1/C(=C/c2ccc(OCCCCN3CCCCCC3)cc2)CC/C1=C\c1ccc(OCCCCN2CCCCCC2)cc1 | 4 | Active | 8 | 16 | 9.32 | 4 | 14.8 | 95.7 | 90.3 | 6.19 | 7.03 | 32 | 8 | 4 | 8 | 16 | 4 | 8 | 16 | 32 | Activity [17]: 3 log10CFU/ml; Activity [19]: Active; Activity [20]: 76.6%; Activity [26]: 4.3 log10CFU/ml
CN[C@H](CC(C)C)C(=O)N[C@H]1C(=O)N[C@@H](CC(N)=O)C(=O)N[C@H]2C(=O)N[C@H]3C(=O)N[C@H](C(=O)N[C@H](C(=O)O)c4cc(O)cc(O)c4-c4cc3ccc4O)[C@H](O)c3ccc(c(Cl)c3)Oc3cc2cc(c3O[C@@H]2O[C@H](CO)[C@@H](O)[C@H](O)[C@H]2O[C@H]2C[C@](C)(N)[C@H](O)[C@H](C)O2)Oc2ccc(cc2Cl)[C@H]1O [VANCOMYCIN] |  |  |  | 64 (≈ 44.2 µM) |  |  |  |  |  |  |  | 128 (≈ 88.3 µM) |  |  |  | 128 (≈ 88.3 µM) |  |  | 64 (≈ 44.2 µM) | 128 (≈ 88.3 µM) | 
